From patent US12344610B2, “APOL1 inhibitors and methods of use” (Maze Therapeutics, Inc., priority 2022, dated 2025)

How the values were obtained:
Type in all cases: cell-based
APOL1 G2 = target: T1, APOL1 G2 (Homo sapiens, UniProt O14791, DEL388-389); assay: APOL1-mediated calcium transport (calcium influx) assay, HEK T-REx/GCaMP6f/APOL1 G2 K6.3 cells, FLIPR TETRA; conditions: prevention of calcium influx; geometric mean of at least 2 assay runs; † = average of a technical replicate from a single assay run
T1 construct: expressed in transfected cells; host or cells: HEK293 T-REx clonal line stably expressing GCaMP6f (HEK T-REx/GCaMP6f/APOL1 G2 K6.3), doxycycline induced
T1 sequence (O14791 with tags, fused parts or gaps DEL388-389): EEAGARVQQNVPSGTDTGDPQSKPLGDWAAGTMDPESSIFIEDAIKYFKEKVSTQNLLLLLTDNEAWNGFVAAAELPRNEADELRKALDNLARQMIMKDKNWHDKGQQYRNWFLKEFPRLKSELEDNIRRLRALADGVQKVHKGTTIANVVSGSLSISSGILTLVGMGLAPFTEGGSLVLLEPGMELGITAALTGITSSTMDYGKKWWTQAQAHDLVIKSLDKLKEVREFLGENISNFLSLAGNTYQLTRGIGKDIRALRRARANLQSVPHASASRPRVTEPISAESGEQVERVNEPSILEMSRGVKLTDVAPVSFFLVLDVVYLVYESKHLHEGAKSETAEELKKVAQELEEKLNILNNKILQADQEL
Procedure: A HEK293 clonal cell line was generated to stably express GCaMP6f, a genetically encoded calcium indicator, and inducibly express APOL1 G2 (HEK T-REx/GCaMP6f/APOL1 G2 K6.3). Cells were maintained in the following standard complete medium: DMEM with 4.5 g/L glucose and sodium pyruvate (BioWhittaker, Lonza, BE12-614F), supplemented with 10% FBS Performance Plus (Gibco, 16000044), 1% penicillin-streptomycin (BioWhittaker, DE17-602E), 2 mM ultraglutamine-1 (BioWhittaker cat. BE 17-605/U1), 50 μg/mL Zeocin (InvivoGen, ant-zn), 2.5 μg/mL Blasticidin (InvivoGen, ant-bl-5), and 25 μg/mL Hygromycin (InvivoGen, ant-hg). Standard propagation conditions consisted of plating 9×10^6, 4×10^6, 2×10^6 cells in a T225 flasks to be processed after 2, 3, or 4 days, respectively.
A source plate was generated containing 20 serially diluted compounds in DMSO (duplicate 8-point dose response). Next, 0.8 μL of compounds were transferred from the source plate to a destination plate prefilled with 79.2 μL of Ca^2+ free Tyrode's buffer (130 mM NaCl, 5 mM KCl, 1 mM MgCl2, 5 mM NaHCO3, 20 mM HEPES at pH 7.4). The destination plate was placed on a plate shaker (5 seconds at 2000 rpm) to mix. […] All transfer and mixing steps were conducted with an CyBi®-Well dispenser.
Cells were split by gently washing with DPBS (Euroclone, ECB4004L), followed by a 5-minute incubation (humidified, 37° C. with 5% CO2) with trypsin-EDTA solution (Euroclone, ECB3052D). Detached cells were diluted with standard complete medium without selective agents, counted, and plated in a 384 MTP microplate (GR4332CPL, Twin Helix) (10,000 cells/well in 25 μl/well) using a MATRIX WellMate dispenser. Plates were placed into a humidified incubator (37° C. with 5% CO2) overnight. The following day, 20 μL of doxycycline (Sigma, D9891) at 20 ng/mL in standard complete medium was added to cells with a CyBi® Drop dispenser to induce APOL1 G2 expression. After a 6-hour incubation (humidified, 37° C. with 5% CO2), cells were washed 3 times with Ca^2+ free Tyrode's Buffer (130 mM NaCl, 5 mM KCl, 1 mM MgCl2, 5 mM NaHCO3, 20 mM HEPES at pH 7.4) using a BIOTEK Microplate washer, such that 10 μL of buffer remained in each well after the final wash. Assay plates were then stored at room temperature for 10 minutes. Next, 10 μL of diluted compounds were transferred to the assay plate from the 2× compound plate using a CyBi®-Well dispenser. Compound incubation was then carried out at room temperature for 10 minutes. The assay plate was transferred to the FLIPR^TETRA and 20 μL of 10 mM Ca^2+ (final concentration=5 mM) Tyrode's buffer was injected.
Unless otherwise specified, AC50 and values are reported as the geometric mean of at least 2 assay runs on separate days. Each run represents the average of a technical replicate, where each compound was assayed twice in the same plate. A superscript t symbol indicates a value from the average of a technical replicate from a single assay run, where each compound was assayed twice in the same plate.
The AC50 values in Table 39 below reflect the compound's ability to prevent calcium influx by inhibiting APOL1. […] Compounds in Table 39 are referred to by the corresponding Compound Number in Table 1, which is also referred to in the synthetic examples. When one or more of the numbered compounds are identified by stereochemistry (for example, (R)- or (S)-), the specific stereoisomer for which data is provided in Table 39 may be identified by the elution order of such compound as described in the synthetic examples. For example, Compounds 39 and 40 are associated with Step 5 of Example 13, where Compound 39 is the first eluting enantiomer, and Compound 40 is the second eluting enantiomer in the chiral separation of Compound 38. For Table 39 below, n/a represents “not available”.

[1] = system: HEK293 cells overexpressing APOL1 G2; assay: APOL1 G2 HEK293 cell rescue assay (reversal of cell death caused by overexpression of APOL1); conditions: Homo sapiens, HEK293, HEK293 overexpressing APOL1 G2; geometric mean of at least 2 assay runs; † = single assay run
Summary of the method: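 EC50 is the half-maximal effective concentration for reversing cell death driven by APOL1 G2 overexpression in HEK293 cells. Reported as geometric mean of at least 2 runs on separate days, each run averaging duplicate wells per plate; some values from a single run.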

[2] = system: HEK293 clonal cell line overexpressing APOL1 G1; assay: APOL1 G1 HEK293 cell rescue assay (Example B3); conditions: Homo sapiens, HEK293, HEK293 clonal line overexpressing APOL1 G1; geometric mean of at least 2 runs; † = single run; ¥ = concentration at 50% rescue estimated (no sigmoidal curve)
Summary of the method: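 HEK293 clonal line overexpressing APOL1 G1; EC50 is half-maximal reversal of APOL1-induced cell death. Values are the geometric mean of ≥2 runs on separate days, each run the average of duplicate wells. Where no sigmoidal curve could be fitted, the concentration giving 50% rescue was estimated.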

CN1C(=O)C2(CCN(CCOc3ccc(-c4cnn(C)c4)cc3)CC2)c2ccccc21 [Compound 31, 1-methyl-1′-{2-[4-(1-methyl-1H-pyrazol-4-yl)phenoxy]ethyl}-1,2-dihydrospiro[indole-3,4′-piperidin]-2-one]
AC50 (APOL1 G2): 370 nM
EC50 [1]: 810 nM
EC50 [2]: 1570 nM

CN1C(=O)C2(CCN(CCOc3ccc4c(c3)CCS4(=O)=O)CC2)c2ccccc21 [Compound 32, 5-(2-{1-methyl-2-oxo-1,2-dihydrospiro[indole-3,4′-piperidin]-1′-yl}ethoxy)-2,3-dihydro-1λ^6-benzothiophene-1,1-dione]
AC50 (APOL1 G2): 262 nM
EC50 [1]: 785 nM
EC50 [2]: 1860 nM

CN1C(=O)Cc2cc(OCCN3CCC4(CC3)C(=O)N(C)c3ccccc34)ccc21 [Compound 33, 1-methyl-1′-{2-[(1-methyl-2-oxo-2,3-dihydro-1H-indol-5-yl)oxy]ethyl}-1,2-dihydrospiro[indole-3,4′-piperidin]-2-one]
AC50 (APOL1 G2): 218 nM
EC50 [1]: 1070 nM
EC50 [2]: > 3470 nM

CN1C(=O)C2(CCN(CCOc3ccc4nccnc4c3)CC2)c2ccccc21 [Compound 34, 1-methyl-1′-[2-(quinoxalin-6-yloxy)ethyl]-1,2-dihydrospiro[indole-3,4′-piperidin]-2-one]
AC50 (APOL1 G2): 168 nM
EC50 [1]: 1330 nM
EC50 [2]: > 1960 nM

CN1C(=O)C2(CCN(CCOc3ccc(N4CCCC4=O)cc3)CC2)c2ccccc21 [Compound 37, 1-methyl-1′-{2-[4-(2-oxopyrrolidin-1-yl)phenoxy]ethyl}-1,2-dihydrospiro[indole-3,4′-piperidin]-2-one]
AC50 (APOL1 G2): 327 nM
EC50 [1]: 1280 nM
EC50 [2]: 692 nM

CC(c1ccc(OCCN2CCC3(CC2)C(=O)Nc2ccc(Cl)cc23)cc1)S(C)(=O)=O (stereo not drawn) [Compound 38, 5-chloro-1′-{2-[4-(1-methanesulfonylethyl)phenoxy]ethyl}-1,2-dihydrospiro[indole-3,4′-piperidin]-2-one]
AC50 (APOL1 G2): 307 nM
EC50 [1]: 59 nM
EC50 [2]: 222 nM

CS(=O)(=O)CCCS(=O)(=O)c1ccc(OCCN2CCC3(CC2)C(=O)Nc2ccc(Cl)cc23)cc1 [Compound 41, 5-chloro-1′-{2-[4-(3-methanesulfonylpropanesulfonyl)phenoxy]ethyl}-1,2-dihydrospiro[indole-3,4′-piperidin]-2-one]
AC50 (APOL1 G2): 709 nM
EC50 [1]: 97 nM
EC50 [2]: 307 nM

NC(=O)c1ccc(OCCN2CCC3(CC2)C(=O)Nc2ccc(Cl)cc23)cn1 [Compound 47, 5-(2-{5-chloro-2-oxo-1,2-dihydrospiro[indole-3,4′-piperidin]-1′-yl}ethoxy)pyridine-2-carboxamide]
AC50 (APOL1 G2): 641 nM
EC50 [1]: 148 nM
EC50 [2]: 399 nM

CS(=O)(=O)c1ccc(OCCN2CCC3(CC2)C(=O)Nc2ccc(Cl)cc23)c(F)c1 [Compound 48, 5-chloro-1′-[2-(2-fluoro-4-methanesulfonylphenoxy)ethyl]-1,2-dihydrospiro[indole-3,4′-piperidin]-2-one]
AC50 (APOL1 G2): 567 nM
EC50 [1]: 199 nM
EC50 [2]: 445 nM

CN(C)C(=O)c1ccc(OCCN2CCC3(CC2)C(=O)Nc2ccc(Cl)cc23)cn1 [Compound 51]
AC50 (APOL1 G2): 953 nM
EC50 [1]: 214 nM
EC50 [2]: 1250 nM

CNC(=O)c1ccc(OCCN2CCC3(CC2)C(=O)Nc2ccc(Cl)cc23)cc1 [Compound 52, 4-(2-{5-chloro-2-oxo-1,2-dihydrospiro[indole-3,4′-piperidin]-1′-yl}ethoxy)-N-methylbenzamide]
AC50 (APOL1 G2): 615 nM
EC50 [1]: 214 nM
EC50 [2]: 1060 nM

CS(=O)(=O)N1Cc2ccc(OCCN3CCC4(CC3)C(=O)Nc3ccc(Cl)cc34)cc2C1 [Compound 54, 5-chloro-1′-{2-[(2-methanesulfonyl-2,3-dihydro-1H-isoindol-5-yl)oxy]ethyl}-1,2-dihydrospiro[indole-3,4′-piperidin]-2-one]
AC50 (APOL1 G2): 804 nM
EC50 [1]: 90.3 nM
EC50 [2]: 386 nM

CN1C(=O)C2(CCN(CCOc3ccc4c(c3)CCN(S(C)(=O)=O)C4)CC2)c2ccccc21 [Compound 55, 1′-{2-[(2-methanesulfonyl-1,2,3,4-tetrahydroisoquinolin-6-yl)oxy]ethyl}-1-methyl-1,2-dihydrospiro[indole-3,4′-piperidin]-2-one]
AC50 (APOL1 G2): < 284 nM
EC50 [1]: 983 nM
EC50 [2]: 1210 nM

CC(=O)N1CCc2cc(OCCN3CCC4(CC3)C(=O)N(C)c3ccccc34)ccc2C1 [Compound 58, 1′-{2-[(2-acetyl-1,2,3,4-tetrahydroisoquinolin-6-yl)oxy]ethyl}-1-methyl-1,2-dihydrospiro[indole-3,4′-piperidin]-2-one]
AC50 (APOL1 G2): < 320 nM
EC50 [1]: 1310 nM
EC50 [2]: 2120 nM

CC(=O)N1CCCc2cc(OCCN3CCC4(CC3)C(=O)Nc3ccc(C#N)cc34)ccc21 [Compound 59, 1′-{2-[(1-acetyl-1,2,3,4-tetrahydroquinolin-6-yl)oxy]ethyl}-2-oxo-1,2-dihydrospiro[indole-3,4′-piperidine]-5-carbonitrile]
AC50 (APOL1 G2): 879 nM
EC50 [1]: 213 nM
EC50 [2]: 422 nM

CNC(=O)N1Cc2ccc(OCCN3CCC4(CC3)C(=O)Nc3ccc(Cl)cc34)cc2C1 [Compound 61, 5-(2-{5-chloro-2-oxo-1,2-dihydrospiro[indole-3,4′-piperidin]-1′-yl}ethoxy)-N-methyl-2,3-dihydro-1H-isoindole-2-carboxamide]
AC50 (APOL1 G2): 686 nM
EC50 [1]: 267 nM
EC50 [2]: 632 nM

CN1C(=O)C2(CCN(CCOc3ccc(S(C)(=O)=O)cc3)CC2)c2ccccc21 [Compound 67, 1′-[2-(4-methanesulfonylphenoxy)ethyl]-1-methyl-1,2-dihydrospiro[indole-3,4′-piperidin]-2-one]
AC50 (APOL1 G2): 351 nM
EC50 [1]: 802 nM
EC50 [2]: 2860 nM

CS(=O)(=O)c1ccc(OCCN2CCC3(CC2)C(=O)Nc2ccccc23)cc1 [Compound 73, 1′-[2-(4-methanesulfonylphenoxy)ethyl]-1,2-dihydrospiro[indole-3,4′-piperidin]-2-one]
AC50 (APOL1 G2): 161 nM
EC50 [1]: 527 nM
EC50 [2]: 3520 nM
